# Experimental data reported in patent US8304428B2, “Compounds and methods for inhibiting the interaction of BCL proteins with binding partners” (Infinity Discovery, Inc., priority 2005, dated 2012).
# Target: Bcl-2 (Homo sapiens, UniProt P10415)
# Assay: Bcl-2 binding affinity analysis (fluorescence polarization binding assay)
# From the text: Bcl-2 and Bcl-xL binding can be determined using a variety of known methods. One such assay is a sensitive and quantitative in vitro binding assay using fluorescence polarization (FP) described by Wang, J.-L.; Zhang, Z-J.; Choksi, S.; Sjam. S.; Lu, Z.; Croce, C. M.; Alnemri, E. S.; Komgold, R.; Huang, Z. Cell permeable Bcl-2 binding peptides: a chemical approach to apoptosis induction in tumor cells. Cancer Res. 2000, 60, 1498-1502).
# Bcl-2 binding affinity analysis data is presented below for various compounds of the invention.
# Sequence of Bcl-2 (P10415 whole entry): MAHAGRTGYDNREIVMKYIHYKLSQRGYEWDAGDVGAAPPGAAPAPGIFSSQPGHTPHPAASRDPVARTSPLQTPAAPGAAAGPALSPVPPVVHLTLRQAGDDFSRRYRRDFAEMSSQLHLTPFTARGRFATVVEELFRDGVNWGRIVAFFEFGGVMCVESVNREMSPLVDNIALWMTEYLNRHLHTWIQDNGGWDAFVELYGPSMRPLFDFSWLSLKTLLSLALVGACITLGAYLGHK
row,SMILES,Ki [nM]
1,COc1c(CN2C[C@H](O)[C@@H]([C@H](C)O)[C@H]2C(=O)NC2C[C@H]3C[C@@H]([C@@H]2C)C3(C)C)cccc1-c1cc(C(=O)NCCc2ccccc2)cc(N(C)C)c1 (stereo partly drawn) [Compound 1],< 100
2,COc1c(CN2CCC[C@H]2C(=O)N[C@H]2C[C@H]3C[C@@H]([C@@H]2C)C3(C)C)cccc1-c1cc(C(=O)N[C@@H](Cc2ccccc2)CN(C)C)cc([N+](=O)[O-])c1 [Compound 13],> 50000
3,COc1c(CN2CCC[C@@H]2C(=O)N[C@H]2C[C@H]3C[C@@H]([C@@H]2C)C3(C)C)cccc1-c1cc(C(=O)N[C@@H](Cc2ccccc2)CN(C)C)cc([N+](=O)[O-])c1 [Compound 18],300 to 50000
4,CCN1CCC[C@@H]1CNC(=O)c1cc(-c2cccc(CN3C[C@H](O)[C@@H]([C@H](C)O)[C@H]3C(=O)NC3C[C@H]4C[C@@H]([C@@H]3C)C4(C)C)c2OC)cc(N(C)C)c1 (stereo partly drawn) [Compound 23],< 100
5,C[C@H](O)[C@H]1[C@@H](C(=O)NC2C[C@H]3C[C@@H]([C@@H]2C)C3(C)C)N(Cc2cccc(-c3ccc(C(=O)N(C)C)cc3)c2)C[C@@H]1O (stereo partly drawn) [Compound 24],> 50000
6,COc1c(CN2CC[C@H](O)[C@H]2C(=O)N[C@H]2C[C@H]3C[C@@H]([C@@H]2C)C3(C)C)cccc1-c1cc(C(=O)N[C@@H](Cc2ccccc2)CN(C)C)cc(N(C)C)c1 [Compound 26],< 100
7,COc1c(CN2CSC[C@H]2C(=O)N[C@H]2C[C@H]3C[C@@H]([C@@H]2C)C3(C)C)cccc1-c1cc(C(=O)N[C@@H](Cc2ccccc2)CN(C)C)cc(N(C)C)c1 [Compound 33],< 100
8,COc1c(CN2CSC(C)(C)[C@H]2C(=O)N[C@H]2C[C@H]3C[C@@H]([C@@H]2C)C3(C)C)cccc1-c1cc(C(=O)N[C@@H](Cc2ccccc2)CN(C)C)cc(N(C)C)c1 [Compound 34],< 100
9,COc1c(CN2C[C@H](N)C[C@H]2C(=O)N[C@H]2C[C@H]3C[C@@H]([C@@H]2C)C3(C)C)cccc1-c1cc(C(=O)N[C@@H](Cc2ccccc2)CN(C)C)cc(N(C)C)c1 [Compound 35],< 100
10,COc1c(CN2C[C@@H](N)C[C@H]2C(=O)N[C@H]2C[C@H]3C[C@@H]([C@@H]2C)C3(C)C)cccc1-c1cc(C(=O)N[C@@H](Cc2ccccc2)CN(C)C)cc(N(C)C)c1 [Compound 36],< 100
11,COc1c(CN2CCCC[C@H]2C(=O)N[C@H]2C[C@H]3C[C@@H]([C@@H]2C)C3(C)C)cccc1-c1cc(C(=O)N[C@@H](Cc2ccccc2)CN(C)C)cc(N(C)C)c1 [Compound 37],> 50000
12,COc1c(CN2CCOC[C@H]2C(=O)N[C@H]2C[C@H]3C[C@@H]([C@@H]2C)C3(C)C)cccc1-c1cc(C(=O)N[C@@H](Cc2ccccc2)CN(C)C)cc(N(C)C)c1 [Compound 38],300 to 50000
